According to the METLIN SMRT retention time set (Domingo-Almenara et al. 2019):

Test: gradient 5% acetonitrile 3 min, to 50% in 2 min, to 85% in 15 min, held 3 min, 100 µL/min
Settings: column: Zorbax Extend-C18 2.1 x 50 mm; eluents: water / acetonitrile, 0.1% formic acid
Procedure, shortened: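 In both positive and negative ionization mode, a quadrupole time-of-flight mass spectrometer coupled to HPLC analyzed pure standards run in mixtures of ~100 molecules. The Zorbax Extend-C18 column (2.1 × 50 mm, 1.8 μm) was operated at 100 μL/min with water and acetonitrile, each containing 0.1% formic acid. The dead volume was 40 μL and the dwell volume 900 μL. Retention time came from adduct peaks that were computationally picked and individually inspected by hand.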

SMILES | RP-LC retention time
O=C(Nc1ccc(N2CCCN(C(=O)C3CC3)CC2)cc1)c1cc(-c2ccc(F)cc2)n[nH]1 | 730 s
COC(=O)C(C)NC(=O)NCc1cccn1Cc1ccc(Cl)cc1 (centres undefined) | 832 s
C=CCN1C(=O)COc2ccc(-c3csc(NC(=O)COC)n3)cc21 | 785 s
Cc1sc(-c2nc(C(C)C)cs2)cc1S(=O)(=O)NCc1cccs1 | 1150 s
CCc1ccc2[nH]c3c(c(=O)c2c1)CN(CC(=O)NCc1ccccc1Cl)CC3 | 633 s
Cc1nc(N2CCN(C(c3ccccc3)c3ccccc3)CC2)nc2c1C(=O)CC(c1cccs1)C2 (centres undefined) | 1150 s
Cn1cccc(C(=O)NCCCn2cccc2)c1=O | 644 s
COc1ccc(-c2cn3c(CC(=O)NC4CC4)csc3n2)cc1OC | 607 s
Cc1nc(-c2ccccc2)cc2nn(CC(=O)NC(C)CCc3ccccc3)c(=O)n12 (centres undefined) | 989 s
CC1=C(c2ccccc2)S(=O)(=O)N=C1N1CCC(NC(=O)CCC(C)C)CC1 | 857 s
Cc1noc(C)c1-c1ccc(S(=O)(=O)Nc2cccc(Br)c2)cc1 | 1000 s
COc1cc(C(=O)N2CCCN(c3cc(-c4ccc(Br)cc4)[nH]n3)CC2)cc(OC)c1OC | 768 s
COCc1nc2cccnc2n1C1CCN(C(=O)Nc2ccc(OC)cc2OC)CC1 | 638 s
CS(=O)(=O)N(Cc1cccnc1)C1CN(Cc2ccc(F)c(F)c2)C1 | 571 s
CCCOc1nc2ccccc2nc1N1CCCC(C(=O)NCc2ccccc2C)C1 (centres undefined) | 1240 s
Cc1ccc(C(=O)CC2(O)C(=O)Nc3c(C)cccc32)cc1 (centres undefined) | 748 s
CCOc1ccccc1CNC(=O)C1CCN(S(=O)(=O)c2ccc3[nH]c(=O)ccc3c2)CC1 | 750 s
O=C(Cn1c2ccccc2c2ncn(Cc3nc(-c4ccccc4)no3)c(=O)c21)NC1CCCC1 | 912 s
Cc1ccc(-c2cn3c(CC(=O)N4CCCc5ccccc54)csc3n2)cc1C | 956 s
CCC(C)NC(=O)Cn1c(=O)c2cnc(-c3ccc(C)cc3)nc2n(C)c1=O (centres undefined) | 920 s
Cc1ccc(S(=O)(=O)N2CC(=O)N(c3ccccc3F)C(C)(C(=O)NCCC(C)C)C2)cc1 (centres undefined) | 1020 s
O=C(NCc1cccc(Cl)c1)C1=C2CCCN2c2ccc(F)cc2S1(=O)=O | 933 s
COc1cccc(CCc2nc(-c3ccc4oc(C)nc4c3)no2)c1 | 1030 s

SMILES | RP-LC retention time
COc1ccc(-c2noc(C3CCCN3C(=O)Nc3cccc(Br)c3)n2)cc1 (centres undefined) | 972 s
O=C(c1cc2ccc3cccnc3c2[nH]1)N1CCN(c2ccccn2)CC1 | 596 s
Cn1cnc(S(=O)(=O)N2CCC(Cc3nncn3Cc3ccccc3)C2)c1 (centres undefined) | 614 s
COc1ccc(-c2noc(-c3ccc(N4CCN(c5ccccc5OC)CC4)nc3)n2)cc1 | 1310 s
Cc1ccc(C)c(NC(=O)Cc2csc3nc(-c4ccccc4)cn23)c1 | 845 s
CCCCCOc1ccc(Nc2nc(C(=O)OCC)nc3ccccc23)cc1 | 789 s
CC(C)NC(=O)c1ccc(OCC2CCCN2C(=O)c2ccc(C#N)cc2)cc1 (centres undefined) | 734 s
COc1ccc(SCCCC(=O)Nc2cccc(C)c2C)cc1 | 906 s
COCCn1ncc(N2CCC(NC(=O)C(C)(C)C)CC2)cc1=O | 607 s
CCCCCn1c(=O)c2ccccc2n(Cc2nc(-c3ccccc3)no2)c1=O | 1240 s
COc1ccc(C(=O)CC2(O)C(=O)Nc3ccc(C)cc32)c(OC)c1OC (centres undefined) | 722 s
CCc1nc(-c2csc(S(=O)(=O)N3CCC(C(=O)NC(C)CC)CC3)c2)no1 (centres undefined) | 854 s
COc1ccc2nc3oc(C(=O)NCCc4ccsc4)cc3cc2c1 | 901 s
O=S(=O)(Cc1ccccc1F)N1CC(c2nc(CCOCc3ccccc3)no2)C1 | 1010 s
CC(C)Oc1ccc(CN2CCC(C)(c3noc(C4CCOCC4)n3)CC2)cc1 | 705 s
COC(=O)c1c(NCc2cccc(OC)c2)c2cccc(Cl)c2[nH]c1=O | 803 s
CCOC(=O)c1csc(NC(=O)Nc2cccc(Cl)c2)n1 | 867 s
COC(=O)c1cccc(NC(=O)NCCn2nnc3cc(S(=O)(=O)N(C)C)ccc32)c1 | 732 s
CCN1CCC(N2CCC3(CC2)NCCc2c3[nH]c3ccc(OC)cc23)CC1 | 517 s
COc1ccc(NC(=O)Cn2c(N)nc(C)c(C)c2=O)cc1 | 595 s
COCCN1CCC(N2CCCN(S(=O)(=O)c3ccc(C)cc3)CC2)C1=O (centres undefined) | 591 s
CCCN1C(=O)COc2ccc(-c3noc(-c4ccc(Cl)cc4OC)n3)cc21 | 1260 s
CCOc1ccccc1CN1CC(CO)C2(CCNCC2)C1 (centres undefined) | 520 s

SMILES | RP-LC retention time
Cn1cccc1CN(C(=O)c1ccc(F)cc1Cl)C1CC1 | 915 s
CCc1nnc(NS(=O)(=O)c2ccc(NC(=O)c3ccc([N+](=O)[O-])s3)cc2)s1 | 769 s
CCOC(=O)COc1cc(-c2ccc(F)cc2)nc2ccc(NC(=O)c3ccco3)cc12 | 798 s
Cc1nc(-c2cc3ccccc3nc2N2CCN(c3ccc(F)cc3)CC2)no1 | 1110 s
COc1ccccc1-c1nc(C2CC(=O)N(c3ccccc3)C2)no1 (centres undefined) | 894 s
CC1(C)CC(=O)c2cn(-c3ccc(Cl)cc3)c(=O)c(C(=O)Nc3cccnc3)c2C1 | 763 s
O=C(Nc1ccc(N2CCOCC2)cc1)C1CCc2sc(C(=O)N3CCCC3)cc2C1 (centres undefined) | 669 s
Cn1c(=O)c2ccn(CC(=O)N3CCN(c4ncccn4)CC3)c2n(C)c1=O | 595 s
Cc1[nH]c(-c2ccc(Cl)cc2)cc1C(=O)NC1CCCCC1 | 990 s
Cc1nnc2ccc(S(=O)(=O)N(Cc3ccc(F)cc3)c3ccccc3)cn12 | 863 s
CCc1cc(=O)n(CC(=O)Nc2cc(F)cc(F)c2)c(N2CCOCC2)n1 | 802 s
CCc1ccc(N2C=NS(=O)(=O)c3cccnc32)cc1 | 853 s
CCCN(CCC)C(=O)C1CCC(=O)N1S(=O)(=O)c1ccc(C)cc1 (centres undefined) | 943 s
Cc1oc(-c2ccc(C(=O)NCCN3CCN(C)CC3)cc2)nc1CSc1ccccc1 | 661 s
O=C(Cc1ccccc1F)N1CCCn2nc(-c3cccs3)cc2C1 | 875 s
O=C(Nc1cccc(-c2ccc(N3CCOCC3)nn2)c1)Nc1cc(F)ccc1F | 738 s
O=C(c1ccsc1)N1CCC2(CCC2N2CCOCC2)CC1 (centres undefined) | 581 s
COc1ccc(NC(=O)C2CC(=O)N(CCc3c[nH]c4ccc(F)cc34)C2)c(OC)c1 (centres undefined) | 793 s
Cc1ccc(NC(=O)C(=O)c2ccc[nH]2)c(Br)c1 | 1060 s
CCOc1ccc(-n2ccn3cc(-c4ccc(F)cc4)nc3c2=O)cc1 | 860 s
Cc1cc(C(=O)Nc2nnc(-c3ccn(C(C)C)n3)o2)no1 | 620 s
CCOc1ccc(S(=O)(=O)N2CCCC(C(N)=O)C2)cc1C (centres undefined) | 747 s
O=C(N[C@H]1C[C@@H]2C[C@H]1N(C(=O)Nc1ccc(Cl)cc1F)C2)c1cccs1 | 855 s

SMILES | RP-LC retention time
CC(Oc1ccc(=O)n(-c2ccc(F)cc2)n1)C(=O)Nc1cccc(F)c1 (centres undefined) | 793 s
CCNc1nc(-c2ccc(Br)cc2)cs1 | 887 s
Cc1cccc(-n2c(=O)c3c(cc(C)n3C)n(CC(=O)Nc3ccc(C)cc3C)c2=O)c1 | 912 s
COCCc1noc(C2Cc3ccccc3N2C(=O)Nc2ccc3c(c2)OCCO3)n1 (centres undefined) | 860 s
CC(C)CNC(=O)C1CCCN(c2nccn3nc(-c4ccccc4Cl)cc23)C1 (centres undefined) | 872 s
CCCNC(=O)N1CCCC1c1nc(-c2cccc(Cl)c2)no1 (centres undefined) | 904 s
CCOc1ccc(C(=O)N2CCC3(CC2)NC(=O)c2cc(F)ccc2N3CC)cc1 | 836 s
COc1ccccc1-c1nc(-c2ccc3c(c2)nnn3CCN(C)C)no1 | 644 s
CCOc1ccccc1C1NC(=O)N(CC(=O)Nc2ccc3c(c2)CCC3)C2=C1C(=O)OC2 (centres undefined) | 900 s
CCOC(=O)c1c(C)oc2nc(C)nc(N3CCN(Cc4ccc5c(c4)OCO5)CC3)c12 | 708 s
COc1ccc(NC(=O)Nc2c(-c3ccc(F)cc3)nc3ccccn23)cc1 | 649 s
CC1CCN(c2cc(-c3noc(C(=O)N4CCCC4)n3)ccn2)CC1 | 764 s
CCCCCc1c(C)nn(-c2nc(CC(=O)Nc3nc4ccccc4[nH]3)cs2)c1C | 995 s
CCOc1ccccc1NC(=O)C(=O)NCCc1ccsc1 | 1020 s
COC(=O)c1ccccc1NC(=O)Cn1cccc(-c2nc(-c3ccc(Cl)cc3)no2)c1=O | 1070 s
O=C(NCCc1ccccc1)Nc1cnn(-c2ncc(N3CCCC3)cn2)c1 | 778 s
CNC(=O)Oc1ccc2c(c1)[C@]1(C)CCN(C)C1N2C (some centres undefined) | 594 s
COc1cccc(-n2nnc(-c3nsc(Nc4ccc(OC)c(Cl)c4)n3)c2C)c1 | 1020 s
CC(C)NC(=O)c1ccc(OCC2CCN(C(=O)c3ccc(F)cc3)CC2)cc1 | 826 s
CSc1cccc(NC(=O)Cc2csc(SCC(=O)Nc3ccc(C)cc3)n2)c1 | 900 s
